In ChEMBL document CHEMBL1149829, “Terpenoids Produced by Actinomycetes: Napyradiomycins from Streptomyces antimycoticus NT17” (2008):
Values after ≈ are worked out from the molar mass of the structure shown.

Tests used:
Type in all cases: functional
Staphylococcus aureus = test: Antibacterial activity against Staphylococcus aureus 209P JC1 in Mueller Hinton agar medium
Bacillus subtilis = test: Antibacterial activity against Bacillus subtilis ATCC 6633 in Mueller Hinton agar medium
Enterococcus faecium = test: Antibacterial activity against Enterococcus faecium ATCC 19434 in Mueller Hinton agar medium
Enterococcus faecalis = test: Antibacterial activity against Enterococcus faecalis ATCC 19433 in Mueller Hinton agar medium
Streptococcus pyogenes = test: Antibacterial activity against Streptococcus pyogenes ATCC 12344 in Mueller Hinton agar medium

Row | MIC (Staphylococcus aureus) | MIC (Bacillus subtilis) | MIC (Enterococcus faecium) | MIC (Enterococcus faecalis) | MIC (Streptococcus pyogenes) | SMILES
1 | 2 µM (≈ 1.01 µg/mL) | 1 µM (≈ 0.507 µg/mL) | 15.8 µM (≈ 8.02 µg/mL) | 31.6 µM (≈ 16 µg/mL) | 7.8 µM (≈ 3.96 µg/mL) | CC(C)=CCC/C(C)=C/C[C@@]12OC(C)(C)[C@H](Cl)C[C@]1(Cl)C(=O)C1=C(C2=O)C(=[N+]=[N-])C(=O)C=C1O
2 | 3.7 µM (≈ 2 µg/mL) | 3.7 µM (≈ 2 µg/mL) | 14.8 µM (≈ 8.02 µg/mL) | 14.8 µM (≈ 8.02 µg/mL) | – | C=C1CC[C@H](Cl)C(C)(C)[C@@H]1C[C@@]12OC(C)(C)[C@H](Cl)C[C@]1(Cl)C(=O)C1=C(C2=O)C(=[N+]=[N-])C(=O)C=C1O
